Where no end group is shown, it is not given here. The star is where a group is joined. Palmitoyl = CCCCCCCCCCCCCCCC(=O)*; Myristoyl = CCCCCCCCCCCCCC(=O)*
Tests used:
[1] = system: keratinocytes; test: Cytokine secretion in keratinocytes stimulated by LPS, TNFα or IL-17 (ELISA); format: cell-based, BALB/C mice; details: for cytokine secretion in keratinocytes: stimulated by LPS, TNFα, or IL-17
Procedure: To determine their effects, keratinocytes were derived from newborn BALB/C mice skin. The cells were incubated for 5 days in 24 wells plate. Cells were then incubated with PBS−/− as control or stimulated by LPS, TNFα, or IL-17. PKCα inhibitors were added as indicated. Medium containing secreted cytokines was collected after 48 hr and analyzed using ELISA. FIG. 40 is a tabular summary of cytokine secretion.
PKCδactivators were also shown to have an anti-inflammatory effect on keratinocytes and splenocytes. Keratinocytes were derived from newborn BALB/C mice skin. The cells were incubated for 5 days in 24 wells plate. Cells were then incubated with PBS−/− as control or stimulated by LPS or TNFα. The PKCδ inhibitor DAP-1 (SEQ ID NO: 16) was added. Medium containing secreted cytokines was collected after 48 hr and analyzed using ELISA. FIG. 35 is a tabular summary showing cytokine secretion in splenocytes stimulated with LPS. […] Cytokine secretion in keratinocytes stimulated by TNFα: following stimulation with 35 ng/ml TNFα. And treatment with 10 μg/ml of DAP-1, the cytokine levels of IL-1α, G-CSF, MIP-2 and KC were reduced by 95%, 70%, 20% and 30# respectively.
PKCε inhibitors were also shown to have an anti-inflammatory effect on keratinocytes. Keratinocytes were derived from newborn BALB/C mice skin. The cells were incubated for 5 days in 24 wells plate. Cells were then incubated with PBS−/− as control or stimulated by LPS or TNFα. The PKCεinhibitors EPIP-1 (SEQ ID NO: 20), EPIP-2 (SEQ ID NO: 21), or EPIP-4 (SEQ ID NO: 23) were added. Medium containing secreted cytokines was collected after 48 hr and analyzed using ELISA. FIGS. 36-39 show the results for secretion of specific cytokines while Table 8 summarizes cytokine secretion for the various PKCε inhibitors: […]

[2] = system: keratinocytes; test: Keratinocyte proliferation in vitro (PCNA); format: cell-based, Balb/c mice
Procedure: Primary murine keratinocytes from 2 days old Balb/c mice were grown for 5 days to reach full confluence in 0.05 mM Ca^2+ MEM medium. HO/02/10 treatment (10^−6M and 10^−5M) was applied 6 hours prior to induction of differentiation. Cells were harvested, run on SDS PAGE gel and immunoblotted using anti-PCNA antibodies. In addition, C57Black mice, 8-10 weeks of age were subjected to full thickness wounding in the upper back area to induce epidermis remodeling and differentiation. Following the wounding, mice were treated daily with HO/02/10 (ranged 40-4000 mg/kg/day) for 7 days. At the termination point, mice were euthanized and upper back skin samples were fixed in 4% paraformaldehyde solution, following paraffin embedding and slide preparation. Skin samples were then subjected to immunohistochemical staining utilizing PCNA antibody. (n=18).
(§1) FIGS. 7 and 8 presents a summary of expression data in keratinocytes utilizing various peptide PKCα inhibitors: MPDY-1 (SEQ ID NO: 21) as well as data for the peptide PKCα inhibitors AIP-1 (SEQ ID NO: 3), AIP-2 (SEQ ID NO: 20), AWOT-1 (SEQ ID NO: 5) and PPDY-1 (SEQ ID NO: 22). […] FIG. 8 presents a summary of expression data in keratinocytes for various peptide PKCα inhibitors.

[3] = system: splenocytes; test: Cytokine secretion in splenocytes stimulated with LPS or TNFα (ELISA); format: cell-based, B6 mice; details: TNFα 25 ng/ml, 48 hr
Text: Inhibitory effect on activated splenocytes: Splenocytes were derived from B6 mice. […] Medium containing secreted cytokines was collected after 48 hr and analyzed using ELISA.

[4] = system: keratinocytes; test: Keratinocyte differentiation markers (Filaggrin, Loricrin, Keratin 1); format: cell-based, C57BL/6J mice; details: concentration: EPIP1 and DAP1 1 μg/ml, 10 μg/ml, EPIP2 10 μg/ml
Procedure: Keratinocytes derived from C57BL/6J mice were incubated in medium containing Ca^2+ to induce keratinocytes differentiation. Cells were then incubated in the presence of […] (1 μg/ml). Cells were harvested, run on SDS PAGE gel and immunoblotted using anti-Filaggrin (Fil), anti Loricrin (Lor) and anti-Keratin 1 (K1) antibody.
as §1

[5] = system: keratinocytes; test: Keratinocyte migration; format: cell-based; set-up: concentration or dose not given beside the values
[6] = LPS 1 [μg/ml], peptide [10 μg/ml], 48 hr
[7] = LPS 1 [μg/ml], peptide [1 g/ml], 48 hr
[8] = TNF [35 ng/ml], peptide [10 μg/ml], 48 hr
[9] = TNF [35 ng/ml], peptide [1 g/ml], 48 hr
[10] = keratinocytes, LPS (1 μg/ml) (EPIP4: printed 1 mg/ml), peptide concentration not given
[11] = keratinocytes, TNFa stim (35 ng/ml), 1 μg/ml of peptide (given for EPIP1, EPIP2, not for EPIP4), reduction printed with or without minus sign
[12] = keratinocytes, upon LPS and TNFa activation

Substance: PYIALNVD [EPIP-2]
- G-CSF secretion (change) [1, 6]: −75%
- IL-6 secretion (change) [1, 6]: −55%
- IP-10 secretion (change) [1, 6]: −40%
- KC secretion (change) [1, 6]: −90%
- G-CSF secretion (change) [1, 7]: −50%
- IL-6 secretion (change) [1, 7]: −40%
- IP-10 secretion (change) [1, 7]: −50%
- KC secretion (change) [1, 7]: −90%
- G-CSF secretion (change) [1, 8]: −100%
- IL-6 secretion (change) [1, 8]: −95%
- IP-10 secretion (change) [1, 8]: (−40%)
- G-CSF secretion (change) [1, 9]: −100%
- IL-6 secretion (change) [1, 9]: −95%
- IP-10 secretion (change) [1, 9]: (−65%)
- G-CSF secretion (change) [1, 10]: −50%
- IL-6 secretion (change) [1, 10]: −40%
- IP-10 secretion (change) [1, 10]: −50%
- KC secretion (change) [1, 10]: −90%
- Reduces Chemokines IP 10 [1, 11]: Chemokines IP 10 (65%)
- Reduces proinflammatory cytokines IL-6 [1, 11]: (95%), systemic cytokines G-SCF
- Proliferation markers ([2]; 1 μg/ml): Induces
- Proliferation markers ([2]; 10 μg/ml): Reduce
- IL-4 (% reduction in secretion) ([3]; peptide 1 μg/ml): 15%
- IL-17 (% reduction in secretion) ([3]; peptide 1 μg/ml): 80%
- IP-10 (% reduction in secretion) ([3]; peptide 1 μg/ml): 20%
- G-CSF (% reduction in secretion) ([3]; peptide 10 μg/ml): 30%
- IL-6 (% reduction in secretion) ([3]; peptide 10 μg/ml): 25%
- IL-10 (% reduction in secretion) ([3]; peptide 10 μg/ml): 30%
- IL-17 (% reduction in secretion) ([3]; peptide 10 μg/ml): 85%
- IP-10 (% reduction in secretion) ([3]; peptide 10 μg/ml): 10%
- Differentiation markers: granular differentiation [4]: Reduces granular
- Differentiation markers: spainous differentiation [4]: Slightly induces
- Migration, Induces [5]: (200%)

Substance: Myristoyl-Thr-Arg-Lys-Arg-Gln-Arg-Ala-Met-Arg-Arg-Arg-Val-His-Gln-Ile-Asn-Gly (Myristoyl-TRKRQRAMRRRVHQING) [MPE-1]
- G-CSF (% reduction in secretion) ([3]; peptide 1 μg/ml): 40%
- IL-6 (% reduction in secretion) ([3]; peptide 1 μg/ml): 25%
- IL-17 (% reduction in secretion) ([3]; peptide 1 μg/ml): 90%
- G-CSF (% reduction in secretion) ([3]; peptide 10 μg/ml): 15%
- IL-17 (% reduction in secretion) ([3]; peptide 10 μg/ml): 90%

Substance: Pro-Ala-Trp-His-Asp (PAWHD) [EPIP-3]
- cytokine secretion, comparison with MPDY-1 ([1]; keratinocytes, IL-17 activation): IL-17: similar effect to MPDY-1
- pro-inflammatory cytokines, chemokines (effect) [1, 12]: Reduces pro-inflammatory cytokines,
- pro-inflammatory cytokines, chemokines, comparison with MPDY-1 [1, 12]: chemokines, better than MPDY-1 upon
- Proliferation markers (PCNA) ([2]; concentration not given): Induces
- Differentiation markers: granular differentiation [4]: Reduces granular
- Migration, Induces [5]: (200%)

Substance: Myristoyl-Phe-Ala-Arg-Lys-Gly-Ala-Leu (Myristoyl-FARKGAL) [AIP-2]
- cytokine secretion from LPS and TNFα activated keratinocytes ([1]; FIGS. 19 to 23): decrease
- cytokine secretion from IL-17A activated keratinocytes ([1]; FIGS. 24 to 27): decrease
- cytokine secretion in keratinocytes ([1]; 48 hr): effective in decreasing cytokine secretion

Substance: Palmitoyl-Phe-Ala-Arg-Lys-Gly-Ala-Leu-Arg-Gln (Palmitoyl-FARKGALRQ) [PPDY-1]
- cytokine secretion in keratinocytes ([1]; 48 hr): effective in decreasing cytokine secretion
